What was measured:
[1] = system: inherently resistant microorganisms; experiment: microbe, parasite or virus in culture; format: cell-based
[2] = system: microorganisms with acquired resistance; experiment: microbe, parasite or virus in culture; format: cell-based; conditions: for Peptide MIC: A. calcoaceticus, in µg/mL

KWKSFIKKLTSAAKKVVTTAKPLISS [MBI 26]
0.125 µg/mL: Peptide MIC + Ceftriaxone ([2]; B. cepacia BC003) | Ciprofloxacin MIC + Peptide ([2]; P. aeruginosa PA77)
0.13: FIC ([1]; peptide + Piperacillin, S. aureus MRSA)
4: Peptide MIC ([2]; combination with Ciprofloxacin)
0.25 µg/mL: MBI 26 MIC + Vancomycin ([1]; E. casseliflavus 97058 VanC) | MBI 26 MIC + Vancomycin ([1]; E. casseliflavus 97060 VanC) | Ciprofloxacin MIC + Peptide ([2]; A. calcoaceticus 5) | Ciprofloxacin MIC + Peptide ([2]; E. cloacae 16) | Ciprofloxacin MIC + Peptide ([2]; E. cloacae 17) | Ciprofloxacin MIC + Peptide ([2]; P. aeruginosa 30) | Ciprofloxacin MIC + Peptide ([2]; P. aeruginosa 31)
16 µg/mL: MBI 26 MIC Alone ([1]; A. calcoaceticus AC001) | MBI 26 MIC + Vancomycin ([1]; E. gallinarum 97049 VanC) | MBI 26 MIC Alone ([1]; K. pneumoniae KP001) | Peptide MIC + Piperacillin ([2]; A. calcoaceticus 2) | Peptide MIC + Ciprofloxacin ([2]; A. calcoaceticus 5) | Peptide MIC + Ciprofloxacin ([2]; E. cloacae 16) | Peptide MIC + Ciprofloxacin ([2]; E. cloacae 17) | Peptide MIC + Piperacillin ([2]; E. cloacae 19) | Peptide MIC + Piperacillin ([2]; H. influenzae 2) | Piperacillin MIC + Peptide ([2]; H. influenzae 2) | Peptide MIC + Ciprofloxacin ([2]; P. aeruginosa 31) | Peptide MIC + Tobramycin ([2]; P. aeruginosa PA031) | Peptide MIC + Gentamicin ([2]; P. aeruginosa PA041)
0.5 µg/mL: MBI 26 MIC + Vancomycin ([1]; E. casseliflavus 97057 VanC) | MBI 26 MIC + Vancomycin ([1]; E. casseliflavus 97059 VanC) | MBI 26 MIC Alone ([1]; E. casseliflavus 97060 VanC) | MBI 26 MIC + Vancomycin ([1]; E. gallinarum 97044 VanC) | Gentamicin MIC + Peptide ([2]; A. baumannii ABI002) | Ceftriaxone MIC + Peptide ([2]; A. baumannii ABI005)
128 µg/mL: Peptide MIC Alone ([1]; P. aeruginosa, Ceftriaxone section) | Peptide MIC Alone ([2]; P. aeruginosa PA41, Ciprofloxacin section)
>128 µg/mL: Peptide MIC Alone ([2]; B. cepacia BC003, Ceftriaxone section) | Peptide MIC Alone ([2]; H. influenzae 1, Piperacillin section) | Peptide MIC Alone ([2]; H. influenzae 2, Piperacillin section) | Peptide MIC Alone ([2]; P. aeruginosa 7, Piperacillin section) | Peptide MIC Alone ([2]; P. aeruginosa PA023, Gentamicin section)
0.19: FIC ([1]; peptide + Amikacin, S. maltophilia)
0.25: FIC ([1]; peptide + Ceftriaxone, S. maltophilia)
4 µg/mL: MBI 26 MIC Alone ([1]; E. casseliflavus 97058 VanC) | MBI 26 MIC + Vancomycin ([1]; E. gallinarum 97046 VanC) | Peptide MIC + Piperacillin ([1]; S. aureus MRSA) | Gentamicin MIC + Peptide ([2]; A. baumannii ABI001) | Peptide MIC + Gentamicin ([2]; A. baumannii ABI001) | Peptide MIC + Gentamicin ([2]; A. baumannii ABI002) | Piperacillin MIC + Peptide ([2]; A. calcoaceticus 2) | Piperacillin MIC + Peptide ([2]; A. calcoaceticus 7) | Piperacillin MIC + Peptide ([2]; E. cloacae 13) | Piperacillin MIC + Peptide ([2]; E. cloacae 19) | Ceftriaxone MIC + Peptide ([2]; E. cloacae ECL015) | Peptide MIC + Ceftriaxone ([2]; E. cloacae ECL015) | Piperacillin MIC + Peptide ([2]; H. influenzae 1) | Piperacillin MIC + Peptide ([2]; P. aeruginosa 23) | Gentamicin MIC + Peptide ([2]; P. aeruginosa PA023) | Tobramycin MIC + Peptide ([2]; P. aeruginosa PA031) | Gentamicin MIC + Peptide ([2]; P. aeruginosa PA041)
1 µg/mL: MBI 26 MIC + Vancomycin ([1]; E. casseliflavus 97056 VanC) | Peptide MIC + Mupirocin ([1]; E. coli) | Peptide MIC + Ceftriaxone ([2]; A. baumannii ABI005) | Peptide MIC + Ceftriaxone ([2]; A. baumannii ABI006) | Ciprofloxacin MIC + Peptide ([2]; P. aeruginosa PA41)
64 µg/mL: MBI 26 MIC Alone ([1]; E. gallinarum 97047 VanC) | MBI 26 MIC Alone ([1]; E. gallinarum 97049 VanC) | MBI 26 MIC Alone ([1]; K. pneumoniae KP002) | MBI 26 MIC Alone ([1]; P. aeruginosa PA041) | Peptide MIC + Gentamicin ([2]; P. aeruginosa PA023) | Peptide MIC Alone ([2]; P. aeruginosa PA041, Gentamicin section) | Peptide MIC + Ciprofloxacin ([2]; P. aeruginosa PA77)
>64 µg/mL: Peptide MIC Alone ([2]; P. aeruginosa 23, Piperacillin section)
32: Peptide MIC ([2]; combination with Ceftazidime)
>32 µg/mL: Peptide MIC Alone ([2]; A. calcoaceticus 5, Ciprofloxacin section) | Peptide MIC Alone ([2]; A. calcoaceticus 7, Piperacillin section) | Peptide MIC Alone ([2]; E. cloacae 13, Piperacillin section) | Peptide MIC Alone ([2]; E. cloacae 16, Ciprofloxacin section) | Peptide MIC Alone ([2]; E. cloacae 17, Ciprofloxacin section) | Peptide MIC Alone ([2]; E. cloacae 19, Piperacillin section) | Peptide MIC Alone ([2]; P. aeruginosa 26, Piperacillin section) | Peptide MIC Alone ([2]; P. aeruginosa 30, Ciprofloxacin section) | Peptide MIC Alone ([2]; P. aeruginosa 31, Ciprofloxacin section)
32 µg/mL: MBI 26 MIC Alone ([1]; E. casseliflavus 97059 VanC) | MBI 26 MIC + Erythro. ([1]; K. pneumoniae KP002) | MBI 26 MIC + Erythro. ([1]; P. aeruginosa PA041) | Peptide MIC Alone ([1]; S. aureus MRSA, Piperacillin section) | Peptide MIC Alone ([2]; A. calcoaceticus 2, Piperacillin section) | Peptide MIC Alone ([2]; E. cloacae ECL015, Ceftriaxone section) | Peptide MIC + Piperacillin ([2]; H. influenzae 1) | Peptide MIC + Piperacillin ([2]; P. aeruginosa 7) | Piperacillin MIC + Peptide ([2]; P. aeruginosa 7) | Peptide MIC + Piperacillin ([2]; P. aeruginosa 23) | Peptide MIC + Piperacillin ([2]; P. aeruginosa 26) | Peptide MIC Alone ([2]; P. aeruginosa PA031, Tobramycin section) | Peptide MIC + Ciprofloxacin ([2]; P. aeruginosa PA41)
2 µg/mL: MBI 26 MIC Alone ([1]; E. casseliflavus 97057 VanC) | Peptide MIC Alone ([1]; E. coli, Mupirocin section) | MBI 26 MIC Alone ([1]; E. gallinarum 97046 VanC) | MBI 26 MIC + Vancomycin ([1]; E. gallinarum 97048 VanC) | MBI 26 MIC Alone ([1]; E. gallinarum 97048 VanC) | Peptide MIC + Ceftriaxone ([1]; S. maltophilia) | Peptide MIC Alone ([2]; A. baumannii ABI005, Ceftriaxone section) | Peptide MIC Alone ([2]; A. baumannii ABI006, Ceftriaxone section) | Peptide MIC + Ciprofloxacin ([2]; P. aeruginosa 30)
8 µg/mL: MBI 26 MIC + Erythro. ([1]; A. calcoaceticus AC001) | MBI 26 MIC Alone ([1]; E. casseliflavus 97056 VanC) | MBI 26 MIC Alone ([1]; E. gallinarum 97044 VanC) | MBI 26 MIC + Vancomycin ([1]; E. gallinarum 97047 VanC) | MBI 26 MIC + Erythro. ([1]; K. pneumoniae KP001) | Peptide MIC Alone ([1]; S. maltophilia, Ceftriaxone section) | Peptide MIC Alone ([2]; A. baumannii ABI001, Gentamicin section) | Peptide MIC Alone ([2]; A. baumannii ABI002, Gentamicin section) | Ceftriaxone MIC + Peptide ([2]; A. baumannii ABI006) | Peptide MIC + Piperacillin ([2]; A. calcoaceticus 7) | Ceftriaxone MIC + Peptide ([2]; B. cepacia BC003) | Peptide MIC + Piperacillin ([2]; E. cloacae 13) | Piperacillin MIC + Peptide ([2]; P. aeruginosa 26)
0.50: FIC ([1]; peptide + Mupirocin, E. coli)
